Laboratory results as given in patent US20210386069A1 (priority 2018, published 2021).

Assay: log P by HPLC on a reversed-phase column (C 18), EEC Directive 79/831 Annex V.A8
Assay type: physicochemical
Details: HPLC reversed-phase C 18, 40° C., 0.1% aqueous formic acid and acetonitrile, linear gradient 10% to 95% acetonitrile
Procedure: In table 1, the log P values were determined in accordance with EEC Directive 79/831 Annex V.A8 by HPLC (High Performance Liquid Chromatography) on a reversed-phase column (C 18), using the method described below:
temperature: 40° C.; mobile phases: 0.1% aqueous formic acid and acetonitrile; linear gradient from 10% acetonitrile to 95% acetonitrile;
If more than one Log P value is available within the same method, all the values are given and separated by “;”.
Calibration was carried out using unbranched alkan-2-ones (comprising 3 to 16 carbon atoms) with known log P values (determination of the log P values by the retention times using linear interpolation between two successive alkanones). lambda-max-values were determined using UV-spectra from 200 nm to 400 nm and the peak values of the chromatographic signals.

| Compound | logP |
| --- | --- |
| Fc1ccc(Nc2cnc3ccccc3c2)c(-c2cccnc2)c1 [I.001] | 1.39 |
| Cc1nc2ccccc2nc1Nc1cccc(F)c1-c1ccncc1F [I.002] | 2.57 |
| Cc1nc2c(F)c(F)ccc2cc1Nc1ccccc1-c1ccnnc1 [I.003] | 2.28 |
| Cc1cncc(-c2ccccc2Nc2cc3ccc(F)c(F)c3nc2C)c1 [I.004] | 1.99 |
| Cc1cc(-c2ccccc2Nc2cc3ccc(F)c(F)c3nc2C)ccn1 [I.005] | 1.75 |
| Cc1ccncc1-c1ccccc1Nc1cc2ccc(F)c(F)c2nc1C [I.006] | 1.86 |
| Cc1nc2c(F)c(F)ccc2cc1Cc1cccc(F)c1-c1ccncc1 [I.007] | 2.00 |
| Cc1nc2c(F)c(F)ccc2cc1Cc1cccc(F)c1-c1cccnc1 [I.008] | 2.64 |
| Cc1nc2c(F)c(F)ccc2cc1Nc1cccc(F)c1-c1cccnc1 [I.009] | 2.28 |
| Cc1nc2c(F)c(F)ccc2cc1Nc1cccc(F)c1-c1ccncc1 [I.010] | 2.01 |
| Cc1nc2c(F)c(F)ccc2cc1Cc1cccc(F)c1-c1cncnc1 [I.011] | 2.76 |
| Cc1nc2c(F)cccc2cc1Nc1cc(F)ccc1-c1ccncc1F [I.012] | 2.95 |
| Cc1nc2c(F)c(F)ccc2cc1Nc1cccc(F)c1-c1cncnc1 [I.013] | 2.61 |
| Cc1nc2c(F)cccc2nc1Nc1cccc(F)c1-c1ccncc1F [I.015] | 2.67 |
| Cc1nc2c(F)c(F)ccc2cc1Nc1cccc(F)c1-c1ccnnc1 [I.016] | 2.44 |
| Cc1nc2c(F)c(F)ccc2cc1Cc1cccc(F)c1C1=CCCCO1 [I.017] | 4.41 |
| Cc1nc2c(F)c(F)ccc2cc1Nc1cccc(F)c1C1=CCCCO1 [I.018] | 4.44 |
| Cc1nc2c(F)c(F)ccc2cc1Nc1ccccc1-c1ccc(C#N)nc1 [I.019] | 3.25 |
| Cc1nc2c(F)c(F)ccc2cc1Nc1ccccc1-c1cncc(C#N)c1 [I.020] | 3.04 |
| Cc1nc2c(F)c(F)ccc2cc1Nc1ccccc1-c1ccncc1C#N [I.021] | 1.41 |
| CCc1cnccc1-c1ccccc1Nc1cc2ccc(F)c(F)c2nc1C [I.022] | 2.08 |
| CCc1ccncc1-c1ccccc1Nc1cc2ccc(F)c(F)c2nc1C [I.023] | 2.08 |

| Compound | logP |
| --- | --- |
| CCc1ncccc1-c1ccccc1Nc1cc2ccc(F)c(F)c2nc1C [I.024] | 2.03 |
| Cc1cncc(C)c1-c1ccccc1Nc1cc2ccc(F)c(F)c2nc1C [I.025] | 2.05 |
| Cc1nc2c(F)c(F)ccc2cc1Nc1ccccc1-c1cccc(=O)n1C [I.026] | 2.52 |
| COc1cnccc1-c1ccccc1Nc1cc2ccc(F)c(F)c2nc1C [I.027] | 2.14 |
| COc1cc(-c2ccccc2Nc2cc3ccc(F)c(F)c3nc2C)ccn1 [I.028] | 3.56 |
| COc1cccc(-c2ccccc2Nc2cc3ccc(F)c(F)c3nc2C)n1 [I.029] | 4.66 |
| COc1ccncc1-c1ccccc1Nc1cc2ccc(F)c(F)c2nc1C [I.030] | 1.77 |
| Cc1cc(-c2ccccc2Nc2cc3ccc(F)c(F)c3nc2C)cnc1F [I.031] | 3.69 |
| Cc1cncc(-c2c(F)cccc2Nc2cc3ccc(F)c(F)c3nc2C)c1 [I.032] | 2.26 |
| Cc1cc(-c2c(F)cccc2Nc2cc3ccc(F)c(F)c3nc2C)ccn1 [I.033] | 1.88 |
| Cc1nc2c(F)c(F)ccc2cc1Nc1ccccc1-c1ccncc1Cl [I.034] | 3.37 |
| Cc1nc2c(F)c(F)ccc2cc1Nc1ccccc1-c1cccc(Cl)n1 [I.035] | 4.97 |
| Cc1nc2c(F)c(F)ccc2cc1Nc1ccccc1-c1ccnc(Cl)c1 [I.036] | 3.56 |
| Cc1nc2c(F)c(F)ccc2cc1Nc1ccccc1-c1ccc(Cl)nc1 [I.037] | 3.62 |
| Cc1nc2c(F)c(F)ccc2cc1Nc1ccccc1-c1cccnc1Cl [I.038] | 3.43 |
| Cc1nc2c(F)c(F)ccc2cc1Nc1ccccc1-c1cnccc1Cl [I.039] | 3.22 |
| Cc1nc2c(F)c(F)ccc2cc1Nc1ccccc1-c1cncc(Cl)c1 [I.040] | 3.54 |
| Cc1nc2c(F)c(F)ccc2cc1Cc1cccc(F)c1-c1ccncc1F [I.041] | 3.40 |
| Cc1nc2c(F)c(F)ccc2cc1Cc1cccc(F)c1-c1cccnc1F [I.043] | 3.55 |
| Cc1nc2c(F)c(F)ccc2cc1Cc1cccc(F)c1-c1ccnc(F)c1 [I.044] | 3.65 |
| Cc1nc2c(F)c(F)ccc2cc1Nc1cccc(F)c1-c1ccc(F)nc1 [I.045] | 3.46 |
| Cc1nc2c(F)c(F)ccc2cc1Nc1cccc(F)c1-c1ccnc(F)c1 [I.046] | 3.46 |

| Compound | logP |
| --- | --- |
| Cc1nc2c(F)c(F)ccc2cc1Nc1cccc(F)c1-c1cccnc1F [I.047] | 3.35 |
| Cc1nc2c(F)c(F)ccc2cc1Nc1c(F)cccc1-c1ccncc1F [I.048] | 3.04 |
| Cc1nc2c(F)c(F)ccc2cc1Nc1ccc(F)cc1-c1ccncc1F [I.049] | 3.24 |
| Cc1nc2c(F)c(F)ccc2nc1Cc1cccc(F)c1-c1ccncc1F [I.050] | 3.31 |
| Cc1nc2c(F)c(F)ccc2cc1Nc1cccc(F)c1-c1ccncc1F [I.051] | 3.29 |
| Cc1nc2c(F)c(F)ccc2cc1Nc1ccccc1-c1ccnc(F)c1F [I.053] | 3.69 |
| Cc1nc2c(F)c(F)ccc2cc1Nc1ccccc1-c1cc(F)nc(F)c1 [I.054] | 3.91 |
| Cc1nc2c(F)c(F)ccc2cc1Nc1ccccc1-c1ccc(F)nc1F [I.055] | 3.81 |
| Cc1nc2c(F)c(F)ccc2nc1Nc1cccc(F)c1-c1ccncc1F [I.056] | 2.98 |
| Cc1nc2c(F)c(F)ccc2cc1Nc1ccccc1-c1cnccc1C1CC1 [I.057] | 2.05 |
| Cc1nc2c(F)c(F)ccc2cc1Nc1ccccc1-c1ccncc1C1CC1 [I.058] | 2.12 |
| Cc1nc2c(F)c(F)ccc2cc1Nc1ccccc1-c1cccnc1C1CC1 [I.059] | 2.80 |
| CCCc1ncccc1-c1ccccc1Nc1cc2ccc(F)c(F)c2nc1C [I.060] | 2.21 |
| CCCc1cnccc1-c1ccccc1Nc1cc2ccc(F)c(F)c2nc1C [I.061] | 2.31 |
| CCCc1ccncc1-c1ccccc1Nc1cc2ccc(F)c(F)c2nc1C [I.062] | 2.41 |
| Cc1nc2c(F)c(F)ccc2cc1Nc1cccc(F)c1-c1ccncc1C#N [I.063] | 1.46 |
| Cc1nc2c(F)c(F)ccc2cc1Nc1cccc(F)c1-c1cncc(C#N)c1 [I.064] | 3.16 |
| CCOc1ccc(-c2ccccc2Nc2cc3ccc(F)c(F)c3nc2C)cn1 [I.065] | 4.02 |
| CCOc1ncccc1-c1ccccc1Nc1cc2ccc(F)c(F)c2nc1C [I.066] | 4.24 |
| CCc1cnccc1-c1c(F)cccc1Nc1cc2ccc(F)c(F)c2nc1C [I.067] | 2.41 |
| CCc1ccncc1-c1c(F)cccc1Nc1cc2ccc(F)c(F)c2nc1C [I.068] | 2.41 |
| CCc1ncccc1-c1c(F)cccc1Nc1cc2ccc(F)c(F)c2nc1C [I.069] | 2.41 |

Same assay, conditions: reversed-phase HPLC column (C 18); preparation examples; log P as defined in table 1 (HPLC, 0.1% aqueous formic acid/acetonitrile)

| Compound | chromatographic logP |
| --- | --- |
| Nc1cccc(F)c1-c1ccncc1F | 2.38 |
| Cc1nc2c(F)c(F)ccc2cc1Cc1cscc1Br [3-[(4-bromo-3-thienyl)methyl]-7,8-difluoro-2-methylquinoline] | 4.01 |
| ClCc1cscc1Br [3-bromo-4-(chloromethyl)thiophene] | 2.99 |
| Cc1nc2c(F)c(F)ccc2cc1Cc1cccc(F)c1-c1ccc(F)nc1 [I.042, 7,8-difluoro-3-[3-fluoro-2-(6-fluoropyridin-3-yl)benzyl]-2-methylquinoline] | 3.7 |
